Data: US11064698B2, “Tetrazolinone compound and use thereof” (SUMITOMO CHEMICAL COMPANY, LIMITED, priority 2017, dated 2021)

How the values were obtained:
Type in all cases: in vivo
[1] = system: diamondback moth (Plutella xylostella); test: Control test against diamondback moth (Plutella xylostella); settings: 500 ppm active ingredient, sprayed on cabbage seedlings 20 mL/seedling, 2nd instar larvae, after 5 days, 25° C.
Protocol: Next, a Test Example is used to show efficacy of the Present compound against pests. In the following Test Example, the test was carried out at 25° C. Test Example 1 Control test against diamondback moth (Plutella xylostella) The Present compound was formulated according to the process described in the Formulation Example 6 to obtain a formulation, and water containing a spreader (0.03% by volume) was added thereto to prepare a diluted solution containing 500 ppm of the active ingredient. Cabbage (Brassicae oleracea) seedlings (on the developmental stage of the second to third true leaf) were planted in a container, and said diluted solution was sprayed into the leaves of the seedlings at a ratio of 20 mL/seedling. Thereafter, the stems and leaves of the seedlings were cut out, and the leaves were placed into a container lined with a filter paper. Approximately five the 2nd instar larvae of diamondback moth (Plutella xylostella) were released into the container. After 5 days, the number of the surviving insects was examined, and the controlling value was calculated by the following equation. […] Controlling value (%)={1−(Cb×Tai)/(Cai×Tb)}×100 wherein the symbols in the equation represent the following meanings. […]

[2] = system: Septoria leaf blotch (Septoria tritici) on wheat; test: Preventive efficacy by foliage application against Septoria leaf blotch on wheat
[3] = system: net blotch (Pyrenophora teres) on barley; test: Preventive efficacy by foliage application against net blotch on barley

## Cc1cccc(-n2nnn(C)c2=O)c1CN1C(=O)CCN1c1ccc(Cl)cc1 [Present compound]
[1]
  Controlling value (control effects): 100%

## Cc1cccc(-n2nnn(C)c2=O)c1COC1=NN(c2ccc(Cl)cc2)CC1 [compound represented by formula (4)]
[2]
  preventive efficacy against Septoria leaf blotch (Septoria tritici): showed preventive efficacy
[3]
  preventive efficacy against net blotch (Pyrenophora teres): showed preventive efficacy
